The values below come from US9066848B2, “Process for making sterile aripiprazole of desired mean particle size” (Bristol-Myers Squibb Company, priority 2003, dated 2015).

SMILES strings stand for the structures.

A short description of data set [1]: particle size of crystallized bulk aripiprazole. In kind it is physicochemical.
For data set [2] the following is noted: at room temperature; cited from earlier work.

The term aqueous solubility denotes the concentration that dissolves in the medium under given conditions. For the compound `O=C1CCc2ccc(OCCCCN3CCN(c4cccc(Cl)c4Cl)CC3)cc2N1` [Aripiprazole, aripiprazole], the “particle size (95% of particles)” value in data set [1] (Example 1: impinging jet crystallization with sonication, 2° C. water anti-solvent) is below 100 microns; in data set [1] (Example 2: impinging jet crystallization without sonication, 30° C. water anti-solvent) it was below 100 microns. In data set [1] (batch crystallization (comparison)), this compound returned a particle size of 100 microns. For the same compound, in data set [2], the aqueous solubility was below 1 µg/mL.
